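Five compound concentrations were applied to cells in 96-well plates for 48 hours; endpoints were derived by simple linear interpolation of the resulting dose-response curve. GI50 marks 50% less growth.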 Active and inactive are the calls of the source. Cut-off read from the data, not from the text of the source: active = GI50 up to about 1.1 µM and inactive = higher.
Key:
Assay in all cases: NCI anticancer screen, dose series, 48 h
[1] = tested on: HCT-116
[2] = tested on: M19-MEL
[3] = tested on: OVCAR-3
[4] = tested on: HOP-92
[5] = tested on: DMS-114
[6] = tested on: HOP-18
[7] = tested on: RXF 393
[8] = tested on: A498
[9] = tested on: HCC 2998
[10] = tested on: HCT-15
[11] = tested on: HOP-62
[12] = tested on: U-251
[13] = tested on: TK-10
[14] = tested on: UACC-62
[15] = tested on: SF-268
[16] = tested on: ACHN
[17] = tested on: NCI-H23
[18] = tested on: NCI-H522
[19] = tested on: KM-20L2
[20] = tested on: OVCAR-8
[21] = tested on: UO-31
[22] = tested on: K562
[23] = tested on: HT-29
[24] = tested on: M14
[25] = tested on: HL-60
[26] = tested on: CCRF-CEM
[27] = tested on: SR
[28] = tested on: Malme-3M
[29] = tested on: CAKI-1
[30] = tested on: SK-OV-3
[31] = tested on: SF-295
[32] = tested on: SNB-78
[33] = tested on: LXFL 529
[34] = tested on: SNB-19
[35] = tested on: KM12
[36] = tested on: EKVX
[37] = tested on: RXF 631
[38] = tested on: SK-MEL-2
[39] = tested on: SF-539
[40] = tested on: A549
[41] = tested on: IGROV-1
[42] = tested on: 786-0
[43] = tested on: NCI-H226
[44] = tested on: SN12C
[45] = tested on: SNB-75
[46] = tested on: XF498
[47] = tested on: DMS-273
[48] = tested on: LOX IMVI
[49] = tested on: DLD-1
[50] = tested on: OVCAR-5
[51] = tested on: SW-620
[52] = tested on: COLO 205
[53] = tested on: OVCAR-4
[54] = tested on: RPMI-8226
[55] = tested on: UACC-257
[56] = tested on: NCI-H460
[57] = tested on: MOLT-4
[58] = tested on: SK-MEL-5
[59] = tested on: SK-MEL-28

COC1=C(C(=O)OC(C)(C)C)C23CCCCC2(C(C(=O)OC(C)(C)C)=C(OC)C3C(=O)OC(C)(C)C)C1C(=O)OC(C)(C)C (configuration not stated)
GI50 [1]: 14.2 µM (inactive) | GI50 [2]: 25 µM (inactive) | GI50 [3]: 7.8 µM (inactive) | GI50 [4]: 7.05 µM (inactive) | GI50 [5]: 9.84 µM (inactive) | GI50 [6]: 12.5 µM (inactive) | GI50 [7]: 27.6 µM (inactive) | GI50 [8]: > 100 µM (inactive) | GI50 [9]: 53.6 µM (inactive) | GI50 [10]: 15.2 µM | GI50 [11]: > 100 µM (inactive) | GI50 [12]: 49.9 µM (inactive) | GI50 [13]: > 100 µM (inactive) | GI50 [14]: 54.8 µM (inactive) | GI50 [15]: > 100 µM (inactive) | GI50 [16]: 20.1 µM (inactive) | GI50 [17]: 21.5 µM (inactive) | GI50 [18]: 11.6 µM (inactive) | GI50 [19]: 16.7 µM (inactive) | GI50 [20]: 59.6 µM (inactive) | GI50 [21]: 9.35 µM (inactive) | GI50 [22]: 9.64 µM (inactive) | GI50 [23]: 18.5 µM (inactive) | GI50 [24]: 7.89 µM (inactive) | GI50 [25]: 6.81 µM (inactive) | GI50 [26]: 27.9 µM (inactive) | GI50 [27]: 19.6 µM (inactive) | GI50 [28]: 55.8 µM (inactive) | GI50 [29]: > 100 µM (inactive) | GI50 [30]: > 100 µM (inactive) | GI50 [31]: 4.78 µM (inactive) | GI50 [32]: 72.9 µM (inactive) | GI50 [33]: 23.2 µM (inactive) | GI50 [34]: > 100 µM (inactive) | GI50 [35]: 34 µM (inactive) | GI50 [36]: 50.7 µM (inactive) | GI50 [37]: 8.15 µM (inactive) | GI50 [38]: 4.18 µM (inactive) | GI50 [39]: 48.3 µM (inactive) | GI50 [40]: 23 µM (inactive) | GI50 [41]: 49.2 µM (inactive) | GI50 [42]: > 100 µM (inactive) | GI50 [43]: 42.7 µM (inactive) | GI50 [44]: 38.2 µM (inactive) | GI50 [45]: 84.5 µM (inactive) | GI50 [46]: 38.1 µM (inactive) | GI50 [47]: 10.1 µM (inactive) | GI50 [48]: 34.4 µM (inactive) | GI50 [49]: 39.9 µM (inactive) | GI50 [50]: > 100 µM (inactive) | GI50 [51]: 60.3 µM (inactive) | GI50 [52]: 10.4 µM (inactive) | GI50 [53]: 9.12 µM (inactive) | GI50 [54]: 8.47 µM (inactive) | GI50 [55]: 6.1 µM (inactive) | GI50 [56]: 11.5 µM (inactive) | GI50 [57]: 6.46 µM (inactive) | GI50 [58]: 12.4 µM (inactive)

Nc1nc(Cl)cc(NCCCCCNc2cc(Cl)nc(N)n2)n1
GI50 [1]: 30.3 µM (inactive) | GI50 [3]: 42 µM (inactive) | GI50 [4]: 28.2 µM (inactive) | GI50 [6]: > 100 µM (inactive) | GI50 [7]: 58.3 µM (inactive) | GI50 [9]: > 100 µM (inactive) | GI50 [10]: 73.6 µM | GI50 [11]: > 100 µM (inactive) | GI50 [12]: > 100 µM (inactive) | GI50 [13]: > 100 µM (inactive) | GI50 [14]: 24 µM (inactive) | GI50 [15]: 29.1 µM (inactive) | GI50 [16]: 15.2 µM (inactive) | GI50 [17]: 55.5 µM (inactive) | GI50 [18]: 20 µM (inactive) | GI50 [19]: > 100 µM (inactive) | GI50 [20]: 71.8 µM (inactive) | GI50 [21]: > 100 µM (inactive) | GI50 [22]: 34.6 µM (inactive) | GI50 [23]: > 100 µM (inactive) | GI50 [24]: 88.3 µM (inactive) | GI50 [25]: 27.3 µM (inactive) | GI50 [26]: 54.1 µM (inactive) | GI50 [27]: 38.7 µM (inactive) | GI50 [29]: 17 µM (inactive) | GI50 [30]: > 100 µM (inactive) | GI50 [31]: 29.2 µM (inactive) | GI50 [32]: 31.3 µM (inactive) | GI50 [33]: 26.9 µM (inactive) | GI50 [34]: > 100 µM (inactive) | GI50 [35]: > 100 µM (inactive) | GI50 [36]: 86.5 µM (inactive) | GI50 [37]: > 100 µM (inactive) | GI50 [38]: > 100 µM (inactive) | GI50 [39]: > 100 µM (inactive) | GI50 [40]: 42 µM (inactive) | GI50 [41]: > 100 µM (inactive) | GI50 [42]: > 100 µM (inactive) | GI50 [43]: 41.4 µM (inactive) | GI50 [44]: > 100 µM (inactive) | GI50 [45]: 72.3 µM (inactive) | GI50 [47]: > 100 µM (inactive) | GI50 [59]: 75 µM (inactive) | GI50 [48]: 25.1 µM (inactive) | GI50 [49]: > 100 µM (inactive) | GI50 [50]: 37.4 µM (inactive) | GI50 [51]: > 100 µM (inactive) | GI50 [52]: > 100 µM (inactive) | GI50 [53]: 34.8 µM (inactive) | GI50 [54]: 33.5 µM (inactive) | GI50 [55]: 46.8 µM (inactive) | GI50 [56]: > 100 µM (inactive) | GI50 [57]: 7.48 µM (inactive) | GI50 [58]: 23.5 µM (inactive)
